Tests used:
[1] = tested on: ileum isolated from guinea pig; assay: In vitro Magnus assay, ileum; conditions: 100 µM; ± SEM; p < 0.05
Description: (§1) Guinea pigs (Japan SLC, Inc., Shizuoka, Japan) were anesthetized with pentobarbital sodium (30–50 mg/kg, i.p.) and the stomach fundi, ileums, and colons were dissected after being exsanguinated. Tissues were immediately placed in Tyrode’s solution containing NaCl 136.9 mM, KCl 2.7 mM, MgCl2.6H2O 1.2 mM, CaCl2.2H2O 2.0 mM, NaHCO3 11.9 mM, and D(+)-glucose 5.6 mM, and flushed for luminal content removal. Segments of approximately 2 cm were cut from each tissue and placed in an organ bath containing Tyrode’s solution aerated with O2:CO2 (95:5) at 32 °C. The tissue segments were connected to an isometric transducer (load, 1.0 g) to record the contractions (Nihon Kohden Corporation, Tokyo, Japan).
(§2) Maximum recording period for one condition was 20 min, and the test solution was exchanged when no effect was detected within 3 min. […] The concentration of acetylcholine was set based on preliminary experiments.

[2] = tested on: Calcium Channel L-Type, Phenylalkylamine; assay: In vitro profiling, binding assay; design: species or system rat; conditions: 30 µM
Description: (§3) Binding and functional assays of CGAs with the proteins known to be pharmacological targets related to the CVS, CNS, and GI functions were conducted. […] In the binding assay, we measured the radiation activity of the solution containing filtered proteins that bound to the tested compound or high-affinity ligand, while in the functional assays, we measured the reaction product. The ability of the test compound to interact with the tested targets was measured as the inhibition of ligand binding to the target or reaction product production (% inhibition).

[3] = tested on: Calcium Channel L-Type, Dihydropyridine; assay: In vitro profiling, binding assay; design: species or system rat; conditions: 30 µM
Description: as §3

GABAA = assay: In vitro profiling, binding assay; design: species or system rat; conditions: 30 µM
Description: as §3

Sodium Channel = assay: In vitro profiling, binding assay; design: species or system rat; conditions: 30 µM
Description: as §3

Glutamate, NMDA = assay: In vitro profiling, binding assay; design: species or system rat; conditions: 30 µM
Description: as §3

[4] = tested on: Calcium Channel L-Type, Benzothiazepine; assay: In vitro profiling, binding assay; design: species or system rat; conditions: 30 µM
Description: as §3

rat hippocampal slices = assay: Electrophysiological assay of hippocampal slices, population spike (PS) recording
Description: All animals were housed and used in accordance with the French and European legislations for animal care. Rats (Janvier Labs, Le Genest-Saint-Isle, France) were euthanized by fast decapitation, without prior anesthesia. The brain was quickly removed and soaked in ice-cold oxygenated buffer containing KCl 2 mM, NaH2PO4 1.2 mM, MgCl2 7 mM, CaCl2 0.5 mM, NaHCO3 26 mM, glucose 11 mM, and sucrose 250 mM. […] During the experiments, slices were perfused with oxygenated artificial cerebrospinal fluid at 37 °C at a rate of 3 mL/min. The tested slice numbers were > 2 for 100 µM, > 4 for 10 µM, and > 6 for 1 µM (follow-up study). All experiments were carried out with 3-dimensional multielectrode array (Qwane Biosciences S.A., Lausanne, Switzerland) and data were recorded with a commercially available multielectrode array set-up from MultiChannel Systems (MCS GmbH, Reutlingen, Germany).
A hippocampal slice was placed on the multielectrode array (100 μm distant electrodes). One electrode was chosen to stimulate schaffer collaterals (SC) at the CA1 border. The stimulus in a monopolar biphasic current pulse (−300 μA for 60 μs followed by +300 μA for 60 μs) was applied at 30-s intervals. An Input/Output (I/O) curve was derived before each experiment to determine the stimulation intensity. Basal stimulation intensity was then set to 100 μA higher than the minimal intensity necessary to induce PS in the pyramidal cell layer.
Then, 1 μM bicuculline, the antagonist of GABAA, was applied in the continuous presence of the compound for an additional 40-min. Control bicuculline slices were recorded in parallel and after 50 min of control recording, 1 μM bicuculline was applied for a 40-min period.
Normalized PS AUC was averaged by slices for each experiment carried out in the same conditions. PS AUC (± SEM) is expressed as a function of time. The number of PS oscillations induced at the end of the bicuculline-exposure period was determined for each electrode and averaged by slices. The results are presented as mean of the last 2 min of application. Statistical significance was measured using two-way ANOVA analysis with Sidak’s multiple comparisons test, except for the 100 µM concentration because of its small slice number.

mice = conditions: 96 weeks; cited from earlier work
rats = conditions: two years; cited from earlier work
[5] = tested on: GI transit and gastric emptying; conditions: rats; dose-dependent manner; cited from earlier work
[6] = tested on: fundus isolated from guinea pig; assay: In vitro Magnus assay, stomach fundus; conditions: 100 µM; ± SEM; p < 0.01
Description: as §1, §2

Row | SMILES | Tension in the ileum [1] [g] | % Inhibition [2] [%] | % Inhibition [3] [%] | % Inhibition (GABAA) [%] | % Inhibition (Sodium Channel) [%] | % Inhibition (Glutamate, NMDA) [%] | % Inhibition [4] [%] | Additional spike number (rat hippocampal slices; 10 μM compound, co-exposure with 1 μM bicuculline) | Safety pharmacological toxicity on chronic exposure (mice) | Safety pharmacological toxicity on chronic exposure (rats) | Additional spike number (rat hippocampal slices; follow-up test, 1 µM alone, single application period) | Effect on GI transit and gastric emptying [5] | Tension in the fundus [6] [g]
1 | O=C(/C=C/c1ccc(O)c(O)c1)O[C@H]1C[C@@](O)(C(=O)O)C[C@H](O)[C@@H]1O [5-CQA, 5-O-caffeoylquinic acid] | 0.293 ± 0.068 | 14 | 1 | 8 | 19 | 9 | −3 |  |  |  |  |  | 
2 | COc1cc(/C=C/C(=O)O[C@H]2C[C@@](O)(C(=O)O)C[C@H](O)[C@@H]2O)ccc1O [5-FQA, 5-O-feruloylquinic acid] |  | 19 | 6 | 15 | 10 | 10 | 6 | in the same range as the bicuculline control slices |  |  |  |  | 
3 | O=C(O)/C=C/c1ccc(O)c(O)c1 [CA, caffeic acid] |  | 21 | 7 | 18 | 1 | 5 | −3 |  | no safety pharmacological toxicity | no safety pharmacological toxicity |  |  | 
4 | COc1cc(/C=C/C(=O)O)ccc1O [FA, ferulic acid] |  | 26 | 1 | 1 | 5 | 16 | 6 |  |  |  | did not trigger multiple spikes | significantly accelerates | 0.089 ± 0.005

From publication PMC6789782, “Safety Pharmacological Evaluation of the Coffee Component, Caffeoylquinic Acid, and Its Metabolites, Using Ex Vivo and In Vitro Profiling Assays” (Pharmaceuticals, 2019)
